These compounds were tested on beta-TC6 cells (assay: Insulin HTRF assay (relative activity Ar) in beta-TC6 cells). Conditions: Mus musculus, Beta-TC6, 4 h, insulin HTRF, supernatant of beta-TC6 cells, incubation with test compound at 37°C for 2, 3, 4h; read-out: Ar (relative activity).
Format: cell-based, mouse
Outline: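 beta-TC6 cells (15k/well, seeded 24 or 48 h) washed, then exposed to compound in induction buffer (0.5% DMSO final) for 2, 3 or 4 h at 37°C.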
For `CN(C)c1cccc(Nc2nccc3c2cc(-c2cccnc2)n3C)c1` [Compound 239, N1,N1-dimethyl-N3-[1-methyl-2-(3-pyridyl)pyrrolo[3,2-c]pyridin-4-yl]benzene-1,3-diamine], the Emax was 30 to 50%.
Work on `COc1ccc(Nc2nccc3c2cc(-c2cccnc2)n3C)c(C)c1` [Compound 240, N-(4-methoxy-2-methyl-phenyl)-1-methyl-2-(3-pyridyl)pyrrolo[3,2-c]pyridin-4-amine] yielded an Emax of 0 to 30%.
Compound `Cc1cccc(Nc2nccc3c2cc(-c2cccnc2)n3C)c1` [Compound 241, 1-methyl-N-(m-tolyl)-2-(3-pyridyl)pyrrolo[3,2-c]pyridin-4-amine] has an Emax of 0 to 30%.
In the case of `Cn1c(-c2cccnc2)cc2c(Nc3ccc(F)cc3)nccc21` [Compound 242, N-(4-fluorophenyl)-1-methyl-2-(3-pyridyl)pyrrolo[3,2-c]pyridin-4-amine], the Emax is reported as 0 to 30%.
For `Cn1c(-c2cccnc2)cc2c(Nc3cccc(NS(C)(=O)=O)c3)nccc21` [Compound 244, N-[3-[[1-methyl-2-(3-pyridyl)pyrrolo[3,2-c]pyridin-4-yl]amino]phenyl]methanesulfonamide], the Emax was 50 to 100%.
Work on `CC(=O)Nc1cccc(Nc2nccc3c2cc(-c2cccnc2)n3C)c1` [Compound 245, N-[3-[[1-methyl-2-(3-pyridyl)pyrrolo[3,2-c]pyridin-4-yl]amino]phenyl]acetamide] yielded an Emax of 50 to 100%.
`Cn1cc(-c2cc3c(Nc4ccc(S(C)(=O)=O)cc4)nccc3[nH]2)cn1` [Compound 246, 2-(1-methylpyrazol-4-yl)-N-(4-methylsulfonylphenyl)-1H-pyrrolo[3,2-c]pyridin-4-amine] gave an Emax greater than 100%.
`Cn1cc(-c2cc3c(Nc4cccnc4)nccc3n2C)cn1` [Compound 247, 1-methyl-2-(1-methylpyrazol-4-yl)-N-(3-pyridyl)pyrrolo[3,2-c]pyridin-4-amine] gave an Emax greater than 100%.
`CC(=O)N(C)c1cccc(-c2cc3c(Nc4ccc(OC(F)(F)F)cc4)nccc3n2C)c1` [Compound 248, N-methyl-N-[3-[1-methyl-4-[4-(trifluoromethoxy)anilino]pyrrolo[3,2-c]pyridin-2-yl]phenyl]acetamide] gave an Emax of 0 to 30%.
Compound `CC(=O)Nc1ccc(Nc2nccc3[nH]c(-c4ccsc4)cc23)cc1` [Compound 249, N-[4-[[2-(3-thienyl)-1H-pyrrolo[3,2-c]pyridin-4-yl]amino]phenyl]acetamide] has an Emax greater than 100%.
`NC(=O)c1ccc(Nc2nccc3[nH]c(-c4ccsc4)cc23)cc1` [Compound 250, 4-[[2-(3-thienyl)-1H-pyrrolo[3,2-c]pyridin-4-yl]amino]benzamide] was tested, and the Emax was 50 to 100%.
Compound `COc1ccc(Nc2nccc3[nH]c(-c4ccsc4)cc23)c(OC)c1` [Compound 251, N-(2,4-dimethoxyphenyl)-2-(3-thienyl)-1H-pyrrolo[3,2-c]pyridin-4-amine] has an Emax of 30 to 50%.
In the case of `c1cc2[nH]c(-c3ccsc3)cc2c(Nc2ccc3c(c2)OCCO3)n1` [Compound 252, N-(2,3-dihydro-1,4-benzodioxin-6-yl)-2-(3-thienyl)-1H-pyrrolo[3,2-c]pyridin-4-amine], the Emax is reported as 50 to 100%.
`COc1ccc(Nc2nccc3[nH]c(-c4ccsc4)cc23)cc1OC` [Compound 253, N-(3,4-dimethoxyphenyl)-2-(3-thienyl)-1H-pyrrolo[3,2-c]pyridin-4-amine] showed an Emax of 50 to 100%.
With `COc1ccc(Nc2nccc3[nH]c(-c4ccsc4)cc23)cn1` [Compound 254, N-(6-methoxy-3-pyridyl)-2-(3-thienyl)-1H-pyrrolo[3,2-c]pyridin-4-amine] the Emax was 50 to 100%.
In the case of `c1cncc(Nc2nccc3[nH]c(-c4ccsc4)cc23)c1` [Compound 255, N-(3-pyridyl)-2-(3-thienyl)-1H-pyrrolo[3,2-c]pyridin-4-amine], the Emax is reported as 50 to 100%.
`c1cc2[nH]c(-c3ccsc3)cc2c(Nc2ccc(N3CCOCC3)cc2)n1` [Compound 256, N-(4-morpholinophenyl)-2-(3-thienyl)-1H-pyrrolo[3,2-c]pyridin-4-amine] gave an Emax of 50 to 100%.
For `CN1CCN(c2ccc(Nc3nccc4[nH]c(-c5ccsc5)cc34)cc2)CC1` [Compound 257, N-[4-(4-methylpiperazin-1-yl)phenyl]-2-(3-thienyl)-1H-pyrrolo[3,2-c]pyridin-4-amine], the Emax was 30 to 50%.
In the case of `c1cc(Nc2nccc3[nH]c(-c4ccsc4)cc23)ccn1` [Compound 258, N-(4-pyridyl)-2-(3-thienyl)-1H-pyrrolo[3,2-c]pyridin-4-amine], the Emax is reported as greater than 100%.
With `COc1ccc(Nc2nccc3[nH]c(-c4ccsc4)cc23)cc1` [Compound 259, N-(4-methoxyphenyl)-2-(3-thienyl)-1H-pyrrolo[3,2-c]pyridin-4-amine] the Emax was 50 to 100%.
`c1ccc(Nc2nccc3[nH]c(-c4ccsc4)cc23)nc1` [Compound 260, N-(2-pyridyl)-2-(3-thienyl)-1H-pyrrolo[3,2-c]pyridin-4-amine] was tested, and the Emax was 50 to 100%.
For `COC(=O)c1ccc(Nc2nccc3[nH]c(-c4ccsc4)cc23)cc1` [Compound 261, methyl 4-[[2-(3-thienyl)-1H-pyrrolo[3,2-c]pyridin-4-yl]amino]benzoate], the Emax was 0 to 30%.
`CS(=O)(=O)c1cccc(Nc2nccc3[nH]c(-c4ccsc4)cc23)c1` [Compound 262, N-(3-methylsulfonylphenyl)-2-(3-thienyl)-1H-pyrrolo[3,2-c]pyridin-4-amine] showed an Emax of 50 to 100%.
`c1cc2[nH]c(-c3ccsc3)cc2c(Nc2ccc3c(c2)OCO3)n1` [Compound 263, N-(1,3-benzodioxol-5-yl)-2-(3-thienyl)-1H-pyrrolo[3,2-c]pyridin-4-amine] gave an Emax of 50 to 100%.
For `Oc1cccc(Nc2nccc3[nH]c(-c4ccsc4)cc23)c1` [Compound 264, 3-[[2-(3-thienyl)-1H-pyrrolo[3,2-c]pyridin-4-yl]amino]phenol], the Emax was 30 to 50%.
In the case of `CS(=O)(=O)Nc1cccc(Nc2nccc3[nH]c(-c4ccsc4)cc23)c1` [Compound 265, N-[3-[[2-(3-thienyl)-1H-pyrrolo[3,2-c]pyridin-4-yl]amino]phenyl]methanesulfonamide], the Emax is reported as 50 to 100%.
For `CC(=O)Nc1cccc(Nc2nccc3[nH]c(-c4ccsc4)cc23)c1` [Compound 266, N-[3-[[2-(3-thienyl)-1H-pyrrolo[3,2-c]pyridin-4-yl]amino]phenyl]acetamide], the Emax was 50 to 100%.
In the case of `CC(=O)c1cccc(Nc2nccc3[nH]c(-c4ccsc4)cc23)c1` [Compound 267, 1-[3-[[2-(3-thienyl)-1H-pyrrolo[3,2-c]pyridin-4-yl]amino]phenyl]ethanone], the Emax is reported as 50 to 100%.
Work on `CS(=O)(=O)c1ccc(Nc2nccc3[nH]c(-c4ccsc4)cc23)cc1` [Compound 268, N-(4-methylsulfonylphenyl)-2-(3-thienyl)-1H-pyrrolo[3,2-c]pyridin-4-amine] yielded an Emax of 50 to 100%.
With `CC(C)Oc1ccc(Nc2nccc3[nH]c(-c4ccsc4)cc23)cc1` [Compound 269, N-(4-isopropoxyphenyl)-2-(3-thienyl)-1H-pyrrolo[3,2-c]pyridin-4-amine] the Emax was 0 to 30%.
`CC(=O)Nc1ccc(Nc2nccc3c2cc(-c2ccsc2)n3C)cc1` [Compound 270, N-[4-[[1-methyl-2-(3-thienyl)pyrrolo[3,2-c]pyridin-4-yl]amino]phenyl]acetamide] showed an Emax of 50 to 100%.
`Cn1c(-c2ccsc2)cc2c(Nc3ccc(O)cc3)nccc21` [Compound 271, 4-[[1-methyl-2-(3-thienyl)pyrrolo[3,2-c]pyridin-4-yl]amino]phenol] gave an Emax of 50 to 100%.
`Cn1c(-c2ccsc2)cc2c(Nc3ccc4c(c3)OCCO4)nccc21` [Compound 273, N-(2,3-dihydro-1,4-benzodioxin-6-yl)-1-methyl-2-(3-thienyl)pyrrolo[3,2-c]pyridin-4-amine] gave an Emax of 30 to 50%.

From patent EP2818472A1, “Imidazo[4,5-c]pyridine and pyrrolo[3,2-c]pyridine compounds as G-protein-coupled receptor kinase 5 (GRK5) modulators” (Max-Planck-Gesellschaft zur Förderung der Wissenschaften …, priority 2013, dated 2014)
